Test results taken from patent publication US6878689B2, “Preventives or remedies for heart failure” (Kaken Pharmaceutical Co., Ltd., priority 2000, dated 2005).
Where a SMILES comes first, the peptide text is derived from it. Where no end group is shown, it is not given here. [ ]: non-standard residue; d: D form. dTrp(2-Me) = Cc1[nH]c2ccccc2c1C[C@@H](N)C(=O)O

Tested on: papillary muscle of guinea-pig
Experiment: Myocardial contractility (developed tension) in isolated, electrically driven papillary muscle of guinea-pig
Settings: for tension development (positive inotropic action) vs baseline: cumulative 10, 30 and 100 μM, n=5, FIG. 1; for change in developed tension: isolated guinea-pig papillary muscle, 1 Hz
Procedure: [Test Example 1] Myocardial Contractility Enhancing Action of Pralmorelin in the Papillary Muscle of Guinea-Pig
The direct effect of pralmorelin on myocardial contractility was evaluated using the isolated cardiac muscle of guinea-pigs according to the standard method for evaluating myocardial contractility. • 1. Materials and Experimental Method • 1) Animal Used
Male Hartley guinea-pigs (body weight, 301-350 g; Japan SLC) were purchased. The animals were accommodated to an environment at a temperature of 23±2° C. and a humidity of 55±15% under 12-hr light/dark cycles while they were allowed to eat and drink water ad libitum until they weighed 360-480 g. Each test substance was tested on a group of five animals. • 2) Reagents Used
The test substances were pralmorelin dihydrochloride (KP-102), representatives of growth hormone secretagogues such as hexarelin, ghrelin and ibutamorelin methanesulfonate (the last being hereunder referred to as MK-0677) (which were prepared by the method described in JP 6-263737 A (kokai)), as well as a recombinant human growth hormone (Sumitomo Pharmaceutical) and amrinone (Sigma) which is a known therapeutic of acute heart failure. KP-102, hexarelin and MK-0677 were dissolved in distilled water. Ghrelin was dissolved in physiological saline. Amrinone was first dissolved in dimethyl sulfoxide and then diluted with physiological saline. The growth hormone was dissolved in a dedicated solubilizer (0.3 w/v % metacresol and 3.9 w/v % D-mannitol). None of the test substance solutions should be added in an amount exceeding 1 w/v %. All reagents other than the test substances were guaranteed products of Nacalai Tesque. • 3) Preparing Specimens of the Isolated Papillary Muscle
The guinea-pigs were stunned with a blow to the back of their head; thereafter, the carotid artery was incised and the animals were exsanguinated to death. The chest was opened, the blood vessels in the upper part of the heart were cut and the heart was removed. The heart was immediately transferred into a Krebs-Henseleit (K-H) nutrient solution (NaCl, 118.0 mM; KCl, 4.7 mM; CaCl2. 2H2O, 1.0 mM; KH2PO4, 1.2 mM; MgSO4.7H2O, 1.2 mM; NaHCO3, 25.0 mM; glucose, 11.0 mM) that had been fully aerated with 95% O2-5% CO2. The heart was fixed on a rubber-lined Petri dish with needles such that its front face was seen. The ventricular wall of the upper right ventricle (toward the atrium) was excised transversely along the atrium, then excised longitudinally along the interventricular septum so that the ventricular wall was opened to expose the right ventricular papillary muscle. Subsequently, the entire surface of the left ventricle was cut open from the aorta (down) to the apex and the anterior wall of the left ventricle was opened wide, to both right and left, and fixed to expose the papillary muscle of the left ventricle. The tricupsid or mitral valve was cut off from the ventricle and the papillary muscle was cut off at the base to prepare a specimen of papillary muscle. The base of the specimen was fixed to field stimulating electrodes in an organ bath filled with 15 mL of the nutrient solution. The tendinous cord adhering to the valve was tied up with a thread and connected to an FD pickup (TB-612T, Nihon Kohden). A resting tension of 0.5 g was loaded and the papillary muscle was driven with an electric stimulator (SEN-3201, Nihon Kohden) at a frequency of 1 Hz by pulses of 20-ms duration and at a voltage intensity about 1.2 times the threshold. After an equilibration period of about 1 hr, KP-102, hexarelin and amrinone were each applied cumulatively up to amounts of 10, 30 and 100 μM. After examination of the changes in inotropic action due to the application of the test substances, 12.5 mM of CaCl2 was added and the maximum tension that was developed by each specimen was obtained. […]

**Q.** With `Cc1[nH]c2ccccc2c1C[C@@H](NC(=O)[C@@H](N)Cc1cnc[nH]1)C(=O)N[C@@H](C)C(=O)N[C@@H](Cc1c[nH]c2ccccc12)C(=O)N[C@H](Cc1ccccc1)C(=O)N[C@@H](CCCCN)C(N)=O` [hexarelin] (H-H[dTrp(2-Me)]AW[dF]K-NH2) as the compound, how does the “tension development (positive inotropic action) vs baseline” value read?
**A.** Its value is “very weak and by no means significant over the baseline value”.

**Q.** For `Nc1cc(-c2ccncc2)c[nH]c1=O` [amrinone], which “tension development (positive inotropic action) vs baseline” value is on record?
**A.** The value was “increased in a concentration-dependent manner”.

**Q.** For `CC(C)(N)C(=O)N[C@H](COCc1ccccc1)C(=O)N1CCC2(CC1)CN(S(C)(=O)=O)c1ccccc12` [MK-0677, ibutamorelin methanesulfonate], which “change in developed tension” value (100 μM) is on record?
**A.** Its value is “no changes in the developed tension”.

**Q.** For “ghrelin (GSSFLSPEHQRVQQRKESKKPPAKLQPR; ends and bridges not checked; UniProt Q9UBU3 24-51, looked up) [representative growth hormone secretagogue]”, which “change in developed tension” value (1 μM) is on record?
**A.** The value was “no changes in the developed tension”.

**Q.** With “recombinant human growth hormone: recombinant human growth hormone (Sumitomo Pharmaceutical)” as the compound, how does the “change in developed tension” value (0.2 IU/mL) read?
**A.** The value was “no changes in the developed tension”.
